Values quoted from earlier work as cited in patent US20130210767A1, “BIOCIDAL COMPOSITION AND METHOD” (Arcis Biotechnology Limited, priority 2010, published 2013).

CCCCCCCCCCCCCCCCCC[N+](C)(C)CCC[Si](OC)(OC)OC [compound of formula (I)]
stability in aqueous solution (aqueous solution): limited stability
stability in the presence of methanol (in the presence of methanol): stable
